Measurements as given in publication PMC8041284, “Tunable Methacrylamides for Covalent Ligand Directed Release Chemistry” (Journal of the American Chemical Society, 2021).
*1 amine or outer side, *2 acyl side, *3 side chain or, on linkers, in order; H or OH if unused. Where a SMILES comes first, the peptide text is derived from it. Bridges are numbered along the chain shown (N, C = ends). [ ]: non-standard residue; d: D form. The star is where a group is joined. Orn(4R-OH,5R-OH) = O=C([C@H](C[C@@H](O)[C@@H](O)N[*:3])N[*:1])[*:2]; Tetradecanoyl(10R,12S-Me2) = CC[C@H](C)C[C@H](C)CCCCCCCCC(=O)*; hTyr(3S-OH,4S-OH) = N[C@H](C(=O)O)[C@H](O)[C@@H](O)c1ccc(O)cc1; Gln(3R-OH) = NC(=O)C[C@@H](O)[C@H](N)C(=O)O; Pro(3S-OH) = O=C(O)[C@H]1NCC[C@@H]1O; Hyp = O=C(O)[C@@H]1C[C@@H](O)CN1

target: BTK (Homo sapiens, UniProt Q06187); assay: biochemical; settings: read-out: BTK inhibition (%)
Sequence (Q06187 402-655 limits assumed): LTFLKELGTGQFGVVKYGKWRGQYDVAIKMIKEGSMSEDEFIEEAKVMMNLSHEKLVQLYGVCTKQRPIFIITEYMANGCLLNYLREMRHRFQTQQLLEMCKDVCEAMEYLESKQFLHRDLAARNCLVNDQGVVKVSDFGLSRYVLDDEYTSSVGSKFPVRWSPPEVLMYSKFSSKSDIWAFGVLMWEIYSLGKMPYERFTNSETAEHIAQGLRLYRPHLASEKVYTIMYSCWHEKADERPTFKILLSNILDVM

SMILES	inhibition at 10 µM [%]
C[C@@]12C[C@@H](c3ccoc3)OC(=O)[C@@H]1CC[C@]1(C)[C@H]2[C@@H]2C=C[C@@]1(O)C(=O)O2 [PCM-0216442]	0
CO[C@H]1C[C@H](O[C@H]2CC[C@]3(C)[C@H]4CC[C@]5(C)[C@@H](C6=CC(=O)OC6)CC[C@]5(O)[C@@H]4CC[C@]3(O)C2)O[C@H](C)[C@H]1O[C@@H]1O[C@H](CO)[C@@H](O)[C@H](O)[C@H]1O [PCM-0216449]	11.6

same assay, conditions: read-out: BTK inhibition (%), 0.75 uM BTK, […] probe 3l, 15 min preincubation

SMILES	inhibition at 10 µM [%]
C=C(C)[C@@H]1CC[C@]2(C=O)CC[C@]3(C)[C@H](CC[C@@H]4[C@@]5(C)CC[C@H](O)C(C)(C)[C@@H]5CC[C@]43C)[C@@H]12 [PCM-0216430]	19.3
C[C@@H]1CC[C@@]2(OC1)O[C@H]1C[C@H]3[C@@H]4CC=C5C[C@@H](O[C@@H]6O[C@H](CO)[C@@H](O[C@@H]7O[C@@H](C)[C@H](O[C@@H]8O[C@@H](C)[C@H](O)[C@@H](O)[C@H]8O)[C@@H](O)[C@H]7O)[C@H](O)[C@H]6O[C@@H]6O[C@@H](C)[C@H](O)[C@@H](O)[C@H]6O)CC[C@]5(C)[C@H]4CC[C@]3(C)[C@@]1(O)[C@@H]2C [PCM-0216432]	-12.4
C=C1CCC[C@]2(C)Cc3occ(C)c3C[C@@H]12 [PCM-0216433]	2.3
CC1(C)CC[C@]2(C(=O)O)CC[C@]3(C)C(=CC[C@@H]4[C@@]5(C)CC[C@H](O[C@@H]6O[C@H](C(=O)O)[C@@H](O)[C@H](O[C@@H]7OC[C@@H](O)[C@H](O)[C@H]7O)[C@H]6O)C(C)(C)[C@@H]5CC[C@]43C)[C@@H]2C1 [PCM-0216434]	3.9
C[C@@H]1CC[C@]2(C(=O)O[C@@H]3O[C@H](CO)[C@@H](O)[C@H](O)[C@H]3O)CC[C@]3(C)C(=CC[C@@H]4[C@@]5(C)CC[C@H](O[C@@H]6OC[C@H](O)[C@H](O)[C@H]6O)C(C)(C)[C@@H]5CC[C@]43C)[C@@H]2[C@]1(C)O [PCM-0216435]	7.7
C[C@@H]1CC[C@]2(C(=O)O)CC[C@]3(C)C(=CC[C@@H]4[C@@]5(C)CC[C@H](O[C@@H]6OC[C@H](O)[C@H](O)[C@H]6O)C(C)(C)[C@@H]5CC[C@]43C)[C@@H]2[C@]1(C)O [PCM-0216436]	14.7
C/C1=C\CC[C@H](C)C(=O)C[C@@H](C(C)C)C(=O)C1 [PCM-0216439]	-3.9
O=C1C=C2C=C[C@@H](O)[C@H](O)[C@H]2O1 [PCM-0216441]	25.5
Cc1cc(=O)c2c(O)c3c(cc2o1)OC(C)(C)[C@@H](O[C@@H]1O[C@H](CO)[C@@H](O)[C@H](O)[C@H]1O)C3 [PCM-0216445]	-30.1
C[C@@H]1O[C@@H](O[C@H]2[C@H](O[C@H]3CC[C@@]4(C)[C@@H](CC[C@]5(C)[C@@H]4CC=C4[C@@H]6CC(C)(C)CC[C@]6(C(=O)O[C@@H]6O[C@H](CO[C@@H]7O[C@H](CO)[C@@H](O)[C@H](O)[C@H]7O)[C@@H](O)[C@H](O)[C@H]6O)CC[C@]45C)[C@]3(C)CO)OC[C@H](O)[C@@H]2O)[C@H](O)[C@H](O[C@@H]2O[C@H](CO)[C@@H](O)[C@H](O)[C@H]2O)[C@H]1O [PCM-0216447]	-21.6
C=C1[C@H](OC(=O)/C=C(\C)CC)C[C@@H](C(C)C)[C@@H]2[C@@H]([C@@H](C)OC(C)=O)C(=O)C[C@@H]12 [PCM-0216448]	-9.3
COc1ccc2c(c1OC)CC1c3c(cc4c(c3-2)OCO4)CCN1C (centres unmarked) [PCM-0216450]	0.8
C[C@@H]1CC[C@@]2(OC1)O[C@H]1C[C@H]3[C@@H]4CC=C5C[C@@H](O)C[C@@H](O)[C@]5(C)[C@H]4CC[C@]3(C)[C@H]1[C@@H]2C [PCM-0216451]	-20.8
O=c1cc(-c2ccccc2)oc2cc(O[C@@H]3O[C@H](CO[C@@H]4O[C@H](CO)[C@@H](O)[C@H](O)[C@H]4O)[C@@H](O)[C@H](O)[C@H]3O)c(O)c(O)c12 [PCM-0216453]	30.9
O=C[C@H](O)[C@@H](O)[C@H](O[C@H]1O[C@H](CO)[C@@H](O[C@H]2O[C@H](CO)[C@@H](O[C@H]3O[C@H](CO)[C@@H](O)[C@H](O)[C@H]3O)[C@H](O)[C@H]2O)[C@H](O)[C@H]1O)[C@H](O)CO [PCM-0216456]	0.8
C[C@@H]1O[C@@H](O[C@H]2[C@H](O[C@H]3C[C@]4(C)[C@H](C[C@@H](O)[C@@H]5[C@@H]([C@]6(C)CC[C@H](C(C)(C)O)O6)CC[C@]54C)[C@@]4(C)CC[C@H](O)C(C)(C)[C@H]34)O[C@H](CO)[C@@H](O)[C@@H]2O)[C@H](O)[C@H](O)[C@H]1O [PCM-0216458]	1.5
CC[C@H](C)C[C@H](C)CCCCCCCCC(=O)N[C@H]1C[C@@H](O)[C@@H](O)NC(=O)[C@@H]2[C@@H](O)CCN2C(=O)[C@H]([C@H](O)CC(N)=O)NC(=O)[C@H]([C@H](O)[C@@H](O)c2ccc(O)cc2)NC(=O)[C@@H]2C[C@@H](O)CN2C(=O)[C@H]([C@@H](C)O)NC1=O [PCM-0216459] ({Tetradecanoyl(10R,12S-Me2)}-[Orn(4R-OH,5R-OH)]T[Hyp][hTyr(3S-OH,4S-OH)][Gln(3R-OH)][Pro(3S-OH)]; lactam 1-C)	-42.5
C[N+]12CCc3cc4c(cc3C1(O)Cc1ccc3c(c1C2)OCO3)OCO4 (centres unmarked) [PCM-0216462]	-18.5
CC(C)=CCC[C@](C)(O[C@@H]1O[C@H](CO[C@@H]2O[C@H](CO)[C@@H](O)[C@H](O)[C@H]2O)[C@@H](O)[C@H](O)[C@H]1O)[C@H]1CC[C@]2(C)[C@@H]1[C@H](O)C[C@@H]1[C@@]3(C)CC[C@H](O[C@@H]4O[C@H](CO)[C@@H](O)[C@H](O)[C@H]4O)C(C)(C)[C@@H]3CC[C@]12C [PCM-0216463]	4.6
CC(C)=CCC[C@](C)(O[C@@H]1O[C@H](CO[C@@H]2OC[C@@H](O)[C@H](O)[C@H]2O)[C@@H](O)[C@H](O)[C@H]1O)[C@H]1CC[C@]2(C)[C@@H]1[C@H](O)C[C@@H]1[C@@]3(C)CC[C@H](O[C@@H]4O[C@H](CO)[C@@H](O)[C@H](O)[C@H]4O[C@@H]4O[C@H](CO)[C@@H](O)[C@H](O)[C@H]4O)C(C)(C)[C@@H]3CC[C@]12C [PCM-0216464]	4.6
CCCCCCCCCCCCCC(=O)OCC(COC(=O)CCCCCCCCCCCCC)OC(=O)CCCCCCCCCCCCC [PCM-0216465]	-18.7
C=C(CCC=C(C)C)[C@H]1CC[C@]2(C)[C@@H]1[C@H](O)C[C@@H]1[C@@]3(C)CC[C@H](O[C@@H]4O[C@H](CO)[C@@H](O)[C@H](O)[C@H]4O[C@@H]4O[C@H](CO)[C@@H](O)[C@H](O)[C@H]4O)C(C)(C)[C@@H]3CC[C@]12C [PCM-0216466]	6.2
Nc1nc(N)nc(N)n1 [PCM-0216468]	13.9
CC(C)=C[C@H]1C[C@](C)(O)[C@@H]2[C@H]3CC[C@@H]4[C@@]5(C)CC[C@H](O[C@@H]6OC[C@H](O)[C@H](O[C@@H]7O[C@H](CO[C@@H]8O[C@H](CO)[C@@H](O)[C@H](O)[C@H]8O)[C@@H](O)[C@H](O)[C@H]7O[C@@H]7OC[C@@H](O)[C@H](O)[C@H]7O)[C@H]6O[C@@H]6O[C@@H](C)[C@H](O)[C@@H](O)[C@H]6O)C(C)(C)[C@@H]5CC[C@@]4(C)[C@@]34CO[C@@]2(C4)O1 [PCM-0216469]	10
CC(C)=C[C@H]1C[C@](C)(O)[C@@H]2[C@H]3CC[C@@H]4[C@@]5(C)CC[C@H](O[C@@H]6OC[C@H](O)[C@H](O[C@@H]7O[C@H](CO)[C@@H](O)[C@H](O)[C@H]7O[C@@H]7OC[C@@H](O)[C@H](O)[C@H]7O)[C@H]6O[C@@H]6O[C@@H](C)[C@H](O)[C@@H](O)[C@H]6O)C(C)(C)[C@@H]5CC[C@@]4(C)[C@@]34CO[C@@]2(C4)O1 [PCM-0216470]	10
COc1cc([C@H]2OC[C@H]3[C@@H]2CO[C@@H]3c2ccc(O[C@@H]3O[C@H](CO)[C@@H](O)[C@H](O)[C@H]3O)c(OC)c2)ccc1O[C@@H]1O[C@H](CO)[C@@H](O)[C@H](O)[C@H]1O [PCM-0216471]	-6.9
COC(=O)[C@@]1(C)CC[C@]2(C(=O)O)CC[C@]3(C)C(=CC[C@@H]4[C@@]5(C)C[C@H](O)[C@H](O[C@@H]6OC[C@@H](O[C@@H]7O[C@H](CO)[C@@H](O)[C@H](O)[C@H]7O)[C@H](O)[C@H]6O)[C@@](C)(CO)[C@@H]5CC[C@]43C)[C@@H]2C1 [PCM-0216472]	2.3
COC(=O)[C@@]1(C)CC[C@]2(C(=O)O)CC[C@]3(C)C(=CC[C@@H]4[C@@]5(C)C[C@H](O)[C@H](O)[C@@](C)(CO)[C@@H]5CC[C@]43C)[C@@H]2C1 [PCM-0216474]	-0.8

Now from value to compound:

inhibition at 10 µM [%]	SMILES
28.6	COc1c(O)cc2c(c1O)C(=O)c1c(cc(C)c(O)c1OC)C2=O [PCM-0216431]
-27	COC(=O)c1c2c(c3ccccc3c1O)OC(C)(C)C=C2 [PCM-0216437]
14.7	COc1ccc(/C=C/c2cc(O)cc(O)c2)cc1O [PCM-0216438]
2.3	COc1ccc([C@@H]2CC(=O)c3c(O)cc(O[C@@H]4O[C@H](CO)[C@@H](O)[C@H](O)[C@H]4O[C@@H]4O[C@@H](C)[C@H](O)[C@@H](O)[C@H]4O)cc3O2)cc1 [PCM-0216440]
2.3	COc1cc2c(cc1O)C[C@H]1c3cc(O)c(OC)cc3CC[N+]1(C)C2 (some centres unmarked) [PCM-0216444]
-1.5	COc1cc2c(cc1O)C[C@H]1c3cc(O)c(OC)cc3CC[N@@+]1(C)C2 [PCM-0216444]
27.8	COc1cc2c[n+](C)c3c4cc5c(cc4ccc3c2cc1OC)OCO5 [PCM-0216452]
26.3	O=c1cc(-c2ccc(O)cc2)oc2c([C@@H]3O[C@H](CO)[C@@H](O)[C@H](O)[C@H]3O)c(O)cc(O)c12 [PCM-0216454]
-13.1	COc1cc2oc(=O)ccc2c(OC)c1C[C@@H](O)C(C)(C)O [PCM-0216455]
64.1	COc1c(O)c(C)cc2c1C(=O)c1c(O)cccc1C2=O [PCM-0216457]
-45.6	CC(C)=CC(O)C/C(C)=C/COc1c2ccoc2cc2oc(=O)ccc12 (centres unmarked) [PCM-0216460]
61	COc1cc(O)c2c(=O)cc(-c3ccc(O)c(O)c3)oc2c1 [PCM-0216461]
10	C[C@@H]1O[C@@H](OC[C@H]2O[C@@H](Oc3cc(O)c4c(c3)O[C@H](c3ccc(O)c(O)c3)CC4=O)[C@H](O)[C@@H](O)[C@@H]2O)[C@H](O)[C@H](O)[C@H]1O [PCM-0216467]
7.7	COc1cc(O)c2c(=O)c(O[C@@H]3O[C@H](CO)[C@@H](O)[C@H](O)[C@H]3O)c(-c3ccc(O[C@@H]4O[C@H](CO)[C@@H](O)[C@H](O)[C@H]4O)cc3)oc2c1 [PCM-0216473]
